Measurements as given in article PMC6032158, “Structure–Activity Relationship of Piplartine and Synthetic Analogues against Schistosoma mansoni and Cytotoxicity to Mammalian Cells” (International Journal of Molecular Sciences, 2018).

Key:
[1] = test system: murine fibroblast (NIH-3T3) cells; assay: MTT cytotoxicity assay in murine fibroblasts; type: cell-based
Protocol: Next, the medium was removed and various concentrations (25–800 µg/mL) of samples reconstituted in 3% DMSO were applied. DMSO (3%) was used as a control. The plates were incubated for 24 h. Next, 15 µL of MTT solution (5 mg/mL in phosphate buffer) was added to each well and the plates were incubated for 2 h. Medium was discarded and 100 µL of DMSO was added to each well. Absorbance was determined using a spectrophotometer with a microplate reader at 595 nm (Molecular Devices Corporation, Sunnyvale, CA, USA).

[2] = test system: mouse BALB/cN macrophage (J774A.1) cell line; assay: Cell viability by flow cytometry in macrophages; details: 24 h, 25, 100 and 400 µg/mL, vs DMEM control
[3] = test system: 49-day-old S. mansoni adult worms; assay: In vitro experiments with adult worms of S. mansoni (mortality, motor activity); type: cell-based, Schistosoma mansoni; details: for Dead Worms (%) F / Motor Activity Reduction (%) Significant F / Motor Activity Reduction (%) Slight F: female worms; for Dead Worms (%) M / Motor Activity Reduction (%) Significant M / Motor Activity Reduction (%) Slight M: male worms
Protocol: The Belo Horizonte (BH) strain of S. mansoni was maintained in Biomphalaria glabrata snails and Mesocricetus auratus hamsters at the Adolfo Lutz Institute (São Paulo, Brazil) according to standard procedures. Detailed methods for the infection of molluscs and hamsters, as well as for the recovery of parasites, were as described previously. Briefly, the intermediate host snails were exposed to light for approximately 3 h and cercariae of S. mansoni were subsequently harvested. […] All animals were handled in strict accordance with good animal practice as defined by the Animal Use Ethics Committee. The preparations and culture of schistosomes was performed as previously described. Briefly, hamsters were killed 49 days after infection for the recovery of adult schistosomes. Next, fresh adult worm pairs (male and female) were washed and placed in a 24-well culture plate (TPP, St. […] Adult schistosomes were maintained continuously in medium (with or without drugs) for 96 h as described below. In vitro assays in S. mansoni adults were performed with mated males and females. The worm pairs obtained from the infusion hamsters were washed twice with RPMI 1640 medium containing 200 U/mL penicillin, 200 μg/mL streptomycin and 2 μg/mL amphotericin B (Vitrocell, Campinas, Brazil). The mated parasites were then transferred into 24-well cell culture plates (TPP, St. […] Cultures of adult worms were monitored by microscopy or magnifying glass. The effect of the drug was assessed with emphasis on changes in worm motor activity and death of worms as previously described.

COc1cc(/C=C/C(=O)N(C(=O)NC2CCCCC2)C2CCCCC2)cc(OC)c1OC [Compound 1M]
effect on NIH-3T3 cell viability (in words) ([1]; MTT, 24 h exposure, 25 to 800 µg/mL): considerable reduction in cell viability at concentrations of 400 and 800 μg/mL | Emax at 800 µg/mL ([1]; Mus musculus, NIH3T3, 24 h, decrease in cell viability at the maximum concentration tested (800 μg/mL), NIH-3T3, 24 h): 70.9 ± 1.2% | effect on J774A.1 cell viability (in words) [2]: significantly altered (p < 0.05) cell viability in comparison with the negative control, but not in a toxic manner | Dead Worms (%) F ([3]; 5 µM, 24 h): 0% | Motor Activity Reduction (%) Significant F ([3]; 5 µM, 24 h): 0% | Motor Activity Reduction (%) Slight F ([3]; 5 µM, 24 h): 0% | Dead Worms (%) M ([3]; 5 µM, 24 h): 0% | Motor Activity Reduction (%) Significant M ([3]; 5 µM, 24 h): 0% | Motor Activity Reduction (%) Slight M ([3]; 5 µM, 24 h): 0% | Dead Worms (%) F ([3]; 5 µM, 48 h): 0% | Motor Activity Reduction (%) Significant F ([3]; 5 µM, 48 h): 0% | Motor Activity Reduction (%) Slight F ([3]; 5 µM, 48 h): 0% | Dead Worms (%) M ([3]; 5 µM, 48 h): 0% | Motor Activity Reduction (%) Significant M ([3]; 5 µM, 48 h): 0% | Motor Activity Reduction (%) Slight M ([3]; 5 µM, 48 h): 0% | Dead Worms (%) F ([3]; 5 µM, 72 h): 0% | Motor Activity Reduction (%) Significant F ([3]; 5 µM, 72 h): 0% | Motor Activity Reduction (%) Slight F ([3]; 5 µM, 72 h): 0% | Dead Worms (%) M ([3]; 5 µM, 72 h): 0% | Motor Activity Reduction (%) Significant M ([3]; 5 µM, 72 h): 0% | Motor Activity Reduction (%) Slight M ([3]; 5 µM, 72 h): 0% | Dead Worms (%) F ([3]; 5 µM, 96 h): 0% | Motor Activity Reduction (%) Significant F ([3]; 5 µM, 96 h): 0% | Motor Activity Reduction (%) Slight F ([3]; 5 µM, 96 h): 0% | Dead Worms (%) M ([3]; 5 µM, 96 h): 0% | Motor Activity Reduction (%) Significant M ([3]; 5 µM, 96 h): 0% | Motor Activity Reduction (%) Slight M ([3]; 5 µM, 96 h): 0% | Dead Worms (%) F ([3]; 10 µM, 24 h): 0% | Motor Activity Reduction (%) Significant F ([3]; 10 µM, 24 h): 0% | Motor Activity Reduction (%) Slight F ([3]; 10 µM, 24 h): 0% | Dead Worms (%) M ([3]; 10 µM, 24 h): 0% | Motor Activity Reduction (%) Significant M ([3]; 10 µM, 24 h): 0% | Motor Activity Reduction (%) Slight M ([3]; 10 µM, 24 h): 0% | Dead Worms (%) F ([3]; 10 µM, 48 h): 0% | Motor Activity Reduction (%) Significant F ([3]; 10 µM, 48 h): 0% | Motor Activity Reduction (%) Slight F ([3]; 10 µM, 48 h): 0% | Dead Worms (%) M ([3]; 10 µM, 48 h): 0% | Motor Activity Reduction (%) Significant M ([3]; 10 µM, 48 h): 0% | Motor Activity Reduction (%) Slight M ([3]; 10 µM, 48 h): 0% | Dead Worms (%) F ([3]; 10 µM, 72 h): 0% | Motor Activity Reduction (%) Significant F ([3]; 10 µM, 72 h): 0% | Motor Activity Reduction (%) Slight F ([3]; 10 µM, 72 h): 0% | Dead Worms (%) M ([3]; 10 µM, 72 h): 0% | Motor Activity Reduction (%) Significant M ([3]; 10 µM, 72 h): 0% | Motor Activity Reduction (%) Slight M ([3]; 10 µM, 72 h): 0% | Dead Worms (%) F ([3]; 10 µM, 96 h): 0% | Motor Activity Reduction (%) Significant F ([3]; 10 µM, 96 h): 0% | Motor Activity Reduction (%) Slight F ([3]; 10 µM, 96 h): 0% | Dead Worms (%) M ([3]; 10 µM, 96 h): 0% | Motor Activity Reduction (%) Significant M ([3]; 10 µM, 96 h): 0% | Motor Activity Reduction (%) Slight M ([3]; 10 µM, 96 h): 0% | Dead Worms (%) F ([3]; 25 µM, 24 h): 0% | Motor Activity Reduction (%) Significant F ([3]; 25 µM, 24 h): 0% | Motor Activity Reduction (%) Slight F ([3]; 25 µM, 24 h): 0% | Dead Worms (%) M ([3]; 25 µM, 24 h): 0% | Motor Activity Reduction (%) Significant M ([3]; 25 µM, 24 h): 0% | Motor Activity Reduction (%) Slight M ([3]; 25 µM, 24 h): 0% | Dead Worms (%) F ([3]; 25 µM, 48 h): 0% | Motor Activity Reduction (%) Significant F ([3]; 25 µM, 48 h): 0% | Motor Activity Reduction (%) Slight F ([3]; 25 µM, 48 h): 0% | Dead Worms (%) M ([3]; 25 µM, 48 h): 0% | Motor Activity Reduction (%) Significant M ([3]; 25 µM, 48 h): 0% | Motor Activity Reduction (%) Slight M ([3]; 25 µM, 48 h): 0% | Dead Worms (%) F ([3]; 25 µM, 72 h): 0% | Motor Activity Reduction (%) Significant F ([3]; 25 µM, 72 h): 0% | Motor Activity Reduction (%) Slight F ([3]; 25 µM, 72 h): 0% | Dead Worms (%) M ([3]; 25 µM, 72 h): 0% | Motor Activity Reduction (%) Significant M ([3]; 25 µM, 72 h): 0% | Motor Activity Reduction (%) Slight M ([3]; 25 µM, 72 h): 0% | Dead Worms (%) F ([3]; 25 µM, 96 h): 0% | Motor Activity Reduction (%) Significant F ([3]; 25 µM, 96 h): 0% | Motor Activity Reduction (%) Slight F ([3]; 25 µM, 96 h): 0% | Dead Worms (%) M ([3]; 25 µM, 96 h): 0% | Motor Activity Reduction (%) Significant M ([3]; 25 µM, 96 h): 0% | Motor Activity Reduction (%) Slight M ([3]; 25 µM, 96 h): 0% | Dead Worms (%) F ([3]; 50 µM, 24 h): 0% | Motor Activity Reduction (%) Significant F ([3]; 50 µM, 24 h): 0% | Motor Activity Reduction (%) Slight F ([3]; 50 µM, 24 h): 0% | Dead Worms (%) M ([3]; 50 µM, 24 h): 0% | Motor Activity Reduction (%) Significant M ([3]; 50 µM, 24 h): 0% | Motor Activity Reduction (%) Slight M ([3]; 50 µM, 24 h): 0% | Dead Worms (%) F ([3]; 50 µM, 48 h): 0% | Motor Activity Reduction (%) Significant F ([3]; 50 µM, 48 h): 0% | Motor Activity Reduction (%) Slight F ([3]; 50 µM, 48 h): 0% | Dead Worms (%) M ([3]; 50 µM, 48 h): 0% | Motor Activity Reduction (%) Significant M ([3]; 50 µM, 48 h): 0% | Motor Activity Reduction (%) Slight M ([3]; 50 µM, 48 h): 0% | Dead Worms (%) F ([3]; 50 µM, 72 h): 0% | Motor Activity Reduction (%) Significant F ([3]; 50 µM, 72 h): 0% | Motor Activity Reduction (%) Slight F ([3]; 50 µM, 72 h): 0% | Dead Worms (%) M ([3]; 50 µM, 72 h): 0% | Motor Activity Reduction (%) Significant M ([3]; 50 µM, 72 h): 0% | Motor Activity Reduction (%) Slight M ([3]; 50 µM, 72 h): 0% | Dead Worms (%) F ([3]; 50 µM, 96 h): 0% | Motor Activity Reduction (%) Significant F ([3]; 50 µM, 96 h): 0% | Motor Activity Reduction (%) Slight F ([3]; 50 µM, 96 h): 0% | Dead Worms (%) M ([3]; 50 µM, 96 h): 0% | Motor Activity Reduction (%) Significant M ([3]; 50 µM, 96 h): 0% | Motor Activity Reduction (%) Slight M ([3]; 50 µM, 96 h): 0% | activity against S. mansoni adult worms (in words) ([3]; analogues 50, 25, 10 and 5 μM, piplartine 5 and 10 μM, up to 96 h): did not present biological activity against the S. mansoni parasite
